Laboratory results published in patent US12371428B2 (Exelixis, Inc., priority 2019, dated 2025).
Structures can show the parent of a compound that is named as a salt.

Assays:
[1] = target: Human MER (residues 528-999) (Homo sapiens (Human), UniProt Q12866); experiment: Human Mer kinase assay, HTRF KinEase (Example C-2); type: biochemical
Summary of the method: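 Recombinant MER 528-999 (1 ng/well) in buffer with 5 mM MgCl2 and 1 mM DTT was reacted with biotinylated peptide and ATP at Km (40 μM) for 60 min at room temperature. EDTA stop with SA-XL665 and Eu3+ TK antibody, then 665/620 nm HTRF read; IC50 from 4-parameter fit.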

[2] = target: AXL (phospho-AXL, Gas6-stimulated A-172 glioblastoma cells) (Homo sapiens (Human), UniProt P30530); experiment: AXL autophosphorylation ELISA in A-172 cells (Example E); type: cell-based; settings: cellular activity; AXL autophosphorylation ELISA in A-172 cells; read-out: Axl IC50
Sequence of AXL (phospho-AXL, Gas6-stimulated A-172 glioblastoma cells) (P30530 26-894): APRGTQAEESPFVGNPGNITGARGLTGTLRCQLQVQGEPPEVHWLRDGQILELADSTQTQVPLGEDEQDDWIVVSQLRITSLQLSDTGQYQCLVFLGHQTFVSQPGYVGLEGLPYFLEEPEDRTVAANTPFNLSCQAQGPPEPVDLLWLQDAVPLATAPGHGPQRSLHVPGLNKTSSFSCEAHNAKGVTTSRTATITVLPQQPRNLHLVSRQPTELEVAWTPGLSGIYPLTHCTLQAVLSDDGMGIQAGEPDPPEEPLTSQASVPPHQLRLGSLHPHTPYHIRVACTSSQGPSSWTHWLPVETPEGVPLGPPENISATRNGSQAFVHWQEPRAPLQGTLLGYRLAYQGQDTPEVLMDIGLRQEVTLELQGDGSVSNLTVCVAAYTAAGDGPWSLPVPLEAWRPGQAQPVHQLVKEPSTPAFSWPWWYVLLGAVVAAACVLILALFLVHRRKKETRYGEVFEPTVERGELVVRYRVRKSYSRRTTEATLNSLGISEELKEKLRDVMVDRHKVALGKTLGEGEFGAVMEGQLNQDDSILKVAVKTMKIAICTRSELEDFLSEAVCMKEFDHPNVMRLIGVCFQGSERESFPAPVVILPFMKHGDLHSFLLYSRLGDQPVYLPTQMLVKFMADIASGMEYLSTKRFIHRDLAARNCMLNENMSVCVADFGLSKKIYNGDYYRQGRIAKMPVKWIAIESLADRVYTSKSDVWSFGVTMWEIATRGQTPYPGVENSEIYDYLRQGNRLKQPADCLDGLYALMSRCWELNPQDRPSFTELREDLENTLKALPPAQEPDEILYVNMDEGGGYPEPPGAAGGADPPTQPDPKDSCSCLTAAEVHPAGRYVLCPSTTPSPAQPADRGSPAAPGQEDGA
Summary of the method: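 Phospho-AXL was measured by ELISA in lysates of Gas6-stimulated A-172 cells, starved 24 h in serum-free medium and exposed 1 h to an 8-point compound dilution at 0.3% DMSO.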

[3] = target: KDR (phospho-KDR, VEGF165-stimulated HUVEC cells) (Homo sapiens (Human), UniProt P35968); experiment: KDR autophosphorylation ELISA in HUVEC cells (Example G); type: cell-based; settings: cellular activity; KDR autophosphorylation ELISA in HUVEC cells
Sequence of KDR (phospho-KDR, VEGF165-stimulated HUVEC cells) (P35968 20-1356): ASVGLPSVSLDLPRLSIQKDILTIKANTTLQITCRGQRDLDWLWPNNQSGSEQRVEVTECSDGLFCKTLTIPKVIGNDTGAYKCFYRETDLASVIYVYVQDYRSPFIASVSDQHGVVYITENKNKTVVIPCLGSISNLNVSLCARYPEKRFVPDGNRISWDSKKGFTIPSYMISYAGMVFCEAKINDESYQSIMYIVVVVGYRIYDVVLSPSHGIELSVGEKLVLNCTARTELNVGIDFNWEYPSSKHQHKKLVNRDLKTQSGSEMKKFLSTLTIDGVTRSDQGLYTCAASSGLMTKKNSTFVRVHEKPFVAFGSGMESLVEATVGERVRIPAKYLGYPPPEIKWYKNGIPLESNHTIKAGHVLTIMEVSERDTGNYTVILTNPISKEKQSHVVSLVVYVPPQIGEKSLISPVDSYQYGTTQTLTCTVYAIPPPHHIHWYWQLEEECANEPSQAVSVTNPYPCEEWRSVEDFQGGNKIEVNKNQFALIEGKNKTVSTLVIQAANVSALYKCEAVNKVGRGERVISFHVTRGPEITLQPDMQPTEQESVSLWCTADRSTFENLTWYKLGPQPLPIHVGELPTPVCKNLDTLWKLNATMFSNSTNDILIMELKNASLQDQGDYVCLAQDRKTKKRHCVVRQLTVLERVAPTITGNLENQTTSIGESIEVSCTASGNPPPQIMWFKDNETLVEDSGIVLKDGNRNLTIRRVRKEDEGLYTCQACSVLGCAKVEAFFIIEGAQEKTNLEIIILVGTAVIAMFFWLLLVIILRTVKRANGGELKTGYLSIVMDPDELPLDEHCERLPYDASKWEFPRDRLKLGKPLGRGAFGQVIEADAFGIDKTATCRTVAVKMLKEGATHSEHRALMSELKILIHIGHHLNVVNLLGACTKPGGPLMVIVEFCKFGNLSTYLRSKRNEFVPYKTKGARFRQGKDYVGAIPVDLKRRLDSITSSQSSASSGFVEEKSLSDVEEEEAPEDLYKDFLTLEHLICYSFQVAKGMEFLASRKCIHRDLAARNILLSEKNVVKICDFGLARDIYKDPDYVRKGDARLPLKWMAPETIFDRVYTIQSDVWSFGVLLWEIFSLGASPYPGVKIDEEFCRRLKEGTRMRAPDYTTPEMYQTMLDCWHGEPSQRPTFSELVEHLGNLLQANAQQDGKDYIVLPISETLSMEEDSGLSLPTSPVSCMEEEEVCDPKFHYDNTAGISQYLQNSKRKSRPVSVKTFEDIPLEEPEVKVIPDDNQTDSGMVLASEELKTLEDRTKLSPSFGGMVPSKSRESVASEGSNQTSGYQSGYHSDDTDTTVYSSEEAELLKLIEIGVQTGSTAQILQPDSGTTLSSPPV
Summary of the method: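 Read-out is phospho-KDR measured by ELISA in lysates of VEGF165-stimulated (100 ng/mL, 5 min) HUVEC that were serum-starved 24 h and then pre-exposed 1 h to compound across 8 doses in 0.3% DMSO. Unstimulated lysates defined 0% and stimulated vehicle lysates 100% activity; IC50 values come from 4-parameter logistic regression.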

[4] = protocol of Example C-2 (other compounds)

Sequence of Human MER (residues 528-999) (Q12866 528-999): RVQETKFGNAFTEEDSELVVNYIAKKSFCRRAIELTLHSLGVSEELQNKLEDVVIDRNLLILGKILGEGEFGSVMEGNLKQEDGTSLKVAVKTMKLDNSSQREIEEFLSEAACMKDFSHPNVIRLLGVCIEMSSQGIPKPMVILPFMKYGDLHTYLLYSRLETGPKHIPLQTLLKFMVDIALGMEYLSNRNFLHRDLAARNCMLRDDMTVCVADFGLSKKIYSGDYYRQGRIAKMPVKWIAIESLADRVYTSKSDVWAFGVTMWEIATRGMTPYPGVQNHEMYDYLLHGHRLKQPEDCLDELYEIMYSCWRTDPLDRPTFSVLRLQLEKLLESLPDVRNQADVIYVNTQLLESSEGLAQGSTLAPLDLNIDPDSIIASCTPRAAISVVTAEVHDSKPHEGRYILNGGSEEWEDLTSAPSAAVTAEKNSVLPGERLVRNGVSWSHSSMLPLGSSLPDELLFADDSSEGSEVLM

| SMILES | IC50 ([1]; protocol of Example C-2) [µM] | IC50 [2] [µM] | IC50 [3] [µM] | IC50 [1, 4] [µM] |
| --- | --- | --- | --- | --- |
| Cc1ncc(C(=O)Nc2ccc(Oc3ccnc4cnccc34)c(F)c2)c(O)c1-c1ccc(F)cc1 [Compound 642, N-[3-fluoro-4-(1,7-naphthyridin-4-yloxy)phenyl]-5-(4-fluorophenyl)-4-hydroxy-6-methylpyridine-3-carboxamide] | < 0.1 | < 0.1 | < 0.1 | – |
| COc1cc2nccc(Oc3ccc(NC(=O)c4cn(OC)cc(-c5ccc(F)cc5)c4=O)cc3F)c2nc1OC [Compound 126, N-[4-[(6,7-Dimethoxy-1,5-naphthyridin-4-yl)oxy]-3-fluorophenyl]-5-(4-fluorophenyl)-1-methoxy-4-oxopyridine-3-carboxamide] | – | – | < 0.1 | < 0.1 |
| COc1cc2nccc(Oc3ccc(NC(=O)c4cnc(C)c(-c5ccc(F)cc5)c4O)cc3F)c2nc1Br [Compound 142, N-[4-[(6-Bromo-7-methoxy-1,5-naphthyridin-4-yl)oxy]-3-fluorophenyl]-5-(4-fluorophenyl)-4-hydroxy-6-methylpyridine-3-carboxamide] | – | – | < 0.1 | < 0.1 |
| COc1cc2nccc(Oc3ccc(NC(=O)c4cnc(C(C)(C)C)c(-c5ccc(F)cc5)c4O)cc3F)c2nc1OC [Compound 155, 6-tert-Butyl-N-[4-[(6,7-dimethoxy-1,5-naphthyridin-4-yl)oxy]-3-fluorophenyl]-5-(4-fluorophenyl)-4-hydroxypyridine-3-carboxamide] | – | – | > 0.3 | < 0.1 |
| Cc1nc2c(Oc3ccc(NC(=O)c4cnc(C)c(-c5ccc(F)cc5)c4O)cc3F)ccnc2cc1-c1cccnc1 [Compound 618, N-[3-Fluoro-4-[(6-methyl-7-pyridin-3-yl-1,5-naphthyridin-4-yl)oxy]phenyl]-5-(4-fluorophenyl)-4-hydroxy-6-methylpyridine-3-carboxamide hydrochloride] | < 0.1 | – | < 0.1 | – |
| COc1cnc2c(Oc3ccc(NC(=O)c4cn(C(C)(C)C)c(C)c(-c5ccc(F)cc5)c4=O)cc3F)ccnc2c1 [Compound 166, 1-tert-Butyl-N-[3-fluoro-4-[(7-methoxy-1,5-naphthyridin-4-yl)oxy]phenyl]-5-(4-fluorophenyl)-6-methyl-4-oxopyridine-3-carboxamide] | – | – | > 0.3 | < 0.1 |
| Cc1nc2c(Oc3ccc(NC(=O)c4cn(C(C)C)c(C)c(-c5ccc(F)cc5)c4=O)cc3F)ccnc2cc1Br [Compound 153, N-[4-[(7-Bromo-6-methyl-1,5-naphthyridin-4-yl)oxy]-3-fluorophenyl]-5-(4-fluorophenyl)-6-methyl-4-oxo-1-propan-2-ylpyridine-3-carboxamide] | – | – | > 0.3 | < 0.1 |
| COc1cc2nccc(Oc3ccc(NC(=O)c4cn(C(C)C)c(C)c(-c5ccc(F)cc5)c4=O)cc3F)c2nc1Br [Compound 143, N-[4-[(6-Bromo-7-methoxy-1,5-naphthyridin-4-yl)oxy]-3-fluorophenyl]-5-(4-fluorophenyl)-6-methyl-4-oxo-1-propan-2-ylpyridine-3-carboxamide] | – | – | 0.1 to 0.3 | < 0.1 |
| Cc1ncc(C(=O)Nc2ccc(Oc3ccnc4cnc(Cl)cc34)c(F)c2)c(O)c1-c1ccc(F)cc1 [Compound 641, N-[4-[(6-chloro-1,7-naphthyridin-4-yl)oxy]-3-fluorophenyl]-5-(4-fluorophenyl)-4-hydroxy-6-methylpyridine-3-carboxamide] | < 0.1 | – | < 0.1 | – |
| COc1cc2ncnc(Oc3ccc(NC(=O)c4cn(C(C)C)cc(-c5ccc(F)cc5)c4=O)cc3F)c2nc1OC [Compound 636, N-[4-(6,7-dimethoxypyrido[3,2-d]pyrimidin-4-yl)oxy-3-fluorophenyl]-5-(4-fluorophenyl)-4-oxo-1-propan-2-ylpyridine-3-carboxamide] | < 0.1 | – | > 0.3 | – |
| Cc1nc2c(Oc3ccc(NC(=O)c4cn(C(C)C)c(C)c(-c5ccc(F)cc5)c4=O)cc3)ccnc2cc1-c1cccnc1 [Compound 613, 5-(4-Fluorophenyl)-6-methyl-N-[4-[(6-methyl-7-pyridin-3-yl-1,5-naphthyridin-4-yl)oxy]phenyl]-4-oxo-1-propan-2-ylpyridine-3-carboxamide hydrochloride] | < 0.1 | – | > 0.3 | – |
| COc1cnc2c(Oc3ccc(NC(=O)c4cn(C(C)C)cc(-c5ccc(F)cc5)c4=O)cc3F)ccnc2c1 [Compound 123, N-[3-Fluoro-4-[(7-methoxy-1,5-naphthyridin-4-yl)oxy]phenyl]-5-(4-fluorophenyl)-4-oxo-1-propan-2-ylpyridine-3-carboxamide] | – | – | > 0.3 | < 0.1 |
| COc1cnc2c(Oc3ccc(NC(=O)c4cncc(-c5ccc(F)cc5)c4O)cc3F)ccnc2c1 [Compound 120, N-[3-Fluoro-4-[(7-methoxy-1,5-naphthyridin-4-yl)oxy]phenyl]-5-(4-fluorophenyl)-4-hydroxypyridine-3-carboxamide] | – | – | < 0.1 | < 0.1 |
| COc1cc2nccc(Oc3ccc(NC(=O)c4cn(CCO)c(C)c(-c5ccc(F)cc5)c4=O)cc3F)c2nc1OC [Compound 619, N-[4-[(6,7-Dimethoxy-1,5-naphthyridin-4-yl)oxy]-3-fluorophenyl]-5-(4-fluorophenyl)-1-(2-hydroxyethyl)-6-methyl-4-oxopyridine-3-carboxamide] | < 0.1 | – | < 0.1 | – |
| Cc1nc(C)c(-c2ccc(F)cc2)c(O)c1C(=O)Nc1ccc(Oc2ccnc3cc(C(C)C)cnc23)cc1 [Compound 598, 5-(4-Fluorophenyl)-4-hydroxy-2,6-dimethyl-N-[4-[(7-propan-2-yl-1,5-naphthyridin-4-yl)oxy]phenyl]pyridine-3-carboxamide] | < 0.1 | – | < 0.1 | – |
| COc1cc2nccc(Oc3ccc(NC(=O)c4cn(CCN5CCOCC5)cc(-c5ccc(F)cc5)c4=O)cc3F)c2nc1OC [Compound 157, N-[4-[(6,7-Dimethoxy-1,5-naphthyridin-4-yl)oxy]-3-fluorophenyl]-5-(4-fluorophenyl)-1-(2-morpholin-4-ylethyl)-4-oxopyridine-3-carboxamide] | – | – | 0.1 to 0.3 | < 0.1 |
